Data reported in publication PMC2666046 (Bioorganic & medicinal chemistry letters, 2009).
Converted amounts (≈) assume the structure as drawn. Read-outs that look alike come from different tables or passages of the source.

Experiments:
B. anthracis NADS = B. anthracis NADS (Bacillus anthracis, UniProt Q81RP3); test: biochemical
[1] = tested on: Bacillus anthracis Sterne; test: microbe, parasite or virus in culture; format: cell-based; details: read-out: B.a. MIC

Chain of B. anthracis NADS (Q81RP3 whole entry, looked up): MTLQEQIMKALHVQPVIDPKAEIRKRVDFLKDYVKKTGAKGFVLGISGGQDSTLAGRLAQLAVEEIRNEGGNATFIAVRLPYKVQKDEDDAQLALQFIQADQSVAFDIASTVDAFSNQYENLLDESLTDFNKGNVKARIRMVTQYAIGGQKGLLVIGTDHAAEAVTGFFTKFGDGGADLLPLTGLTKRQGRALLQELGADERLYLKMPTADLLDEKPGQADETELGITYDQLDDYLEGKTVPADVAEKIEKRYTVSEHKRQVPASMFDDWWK

SMILES	IC50 (B. anthracis NADS) [µM]	IC50 (B. anthracis NADS; read-out: NADs IC50) [µM]	MIC [1] [µM]
O=C(Nc1cccc(/N=C/c2cc([N+](=O)[O-])ccc2O)c1)c1ccc(Cl)cc1Cl [Compound 5691]	106		
O=[N+]([O-])c1ccc(-c2cnc(N/N=C/c3cccc([N+](=O)[O-])c3)nc2)cc1 [Compound 5591]	160		
COc1ccc(NC(=O)Nc2cccc(NC(=O)Nc3ccc(OC)cc3)c2F)cc1 [Compound 5707]	253		
O=C(Cn1cc(/C=C/c2[nH]c(=O)[nH]c(=O)c2[N+](=O)[O-])c2ccccc21)Nc1ccc(F)cc1 [Compound 5615]	55.4	55.4	
N/C(=N\OC(=O)c1ccc(Cl)c(Cl)c1)c1cccc(CSc2ccccn2)c1 [Compound 5775]	290		
NC(=O)c1ccc(/N=C/c2cc([N+](=O)[O-])ccc2Cl)cc1 [Compound 5679]	262		
CCc1ccc(S(=O)(=O)Nc2c([N+](=O)[O-])ccc3ccccc23)cc1 [Compound 5599]			3.75 (≈ 1.34 µg/mL)
